From US20230348426A1, “OXOPYRROLIDINE FPR2 AGONISTS” (Bristol-Myers Squibb Company, priority 2020, published 2023) come the findings set out here.

One assay addresses human FPR2 (Homo sapiens (Human), UniProt P25090). As to the kind of experiment: FPR2 cyclic adenosine monophosphate (cAMP) assay. The assay is classed as cell-based. The settings on record: CHO cells overexpressing human FPR2; forskolin 5 µM; inhibition of cAMP production; read-out: hFPR2 cAMP2 EC50. The method in brief:
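Inhibition of forskolin-driven (5 µM) cAMP, with 200 µM IBMX, measured in human FPR2-expressing CHO cells, 2,000 per well, 30 min at room temperature; compounds tested 0.020 nM to 100 µM in 1% DMSO. HTRF 665/590 ratio converted to cAMP via calibration curve, then 4-parameter fit.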

Another assay has as its target human FPR1 (Homo sapiens (Human), UniProt P21462). As to the kind of experiment: FPR1 cyclic adenosine monophosphate (cAMP) assay. The settings on record: CHO cells overexpressing human FPR1; forskolin 10 µM; inhibition of cAMP production; read-out: hFPR1 cAMP EC50. It counts as cell-based. The method in brief:
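Human FPR1-expressing CHO cells were used at 4,000 per well, with compound at 0.020 nM–100 µM in 1% DMSO. Potency came from a 4-parameter logistic fit.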

human FPR1, sequence (P21462 whole entry): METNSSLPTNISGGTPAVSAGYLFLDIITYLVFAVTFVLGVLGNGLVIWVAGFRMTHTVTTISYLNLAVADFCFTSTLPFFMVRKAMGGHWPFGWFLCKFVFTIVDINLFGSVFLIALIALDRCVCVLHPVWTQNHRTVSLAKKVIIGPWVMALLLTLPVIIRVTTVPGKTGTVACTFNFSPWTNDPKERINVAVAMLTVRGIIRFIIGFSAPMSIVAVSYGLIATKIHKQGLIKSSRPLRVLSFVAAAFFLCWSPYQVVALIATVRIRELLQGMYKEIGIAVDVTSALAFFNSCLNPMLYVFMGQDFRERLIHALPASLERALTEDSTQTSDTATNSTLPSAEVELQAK
human FPR2, sequence (P25090 whole entry): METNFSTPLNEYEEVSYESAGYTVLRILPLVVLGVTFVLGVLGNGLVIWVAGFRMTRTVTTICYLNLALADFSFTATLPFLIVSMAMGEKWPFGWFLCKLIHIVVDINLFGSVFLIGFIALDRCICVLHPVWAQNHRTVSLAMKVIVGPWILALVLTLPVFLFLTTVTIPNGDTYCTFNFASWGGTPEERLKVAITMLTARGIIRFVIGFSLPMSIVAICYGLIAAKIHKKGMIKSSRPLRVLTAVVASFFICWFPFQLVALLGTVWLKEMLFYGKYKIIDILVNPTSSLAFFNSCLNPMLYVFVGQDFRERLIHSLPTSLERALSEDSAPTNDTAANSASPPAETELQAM

`COc1cc(F)c([C@@H]2CN(c3ccnn(CC(F)F)c3=O)C(=O)[C@H]2NC(=O)c2ccc(OC(F)(F)F)cc2)c(F)c1` [Example 473]: the concentration for a half-maximal effect (EC50) at human FPR2 worked out at 1.8 nM; at human FPR1 it was 2 nM.
As to `COc1cc(F)c([C@@H]2CN(c3ccnn(CC(F)F)c3=O)C(=O)[C@H]2NC(=O)c2ccc(OC(F)F)cc2)c(F)c1` [Example 474], the EC50 came to 2.1 nM at human FPR2 and 4 nM at human FPR1.
Consider `COc1cc(F)c([C@@H]2CN(c3ccnn(CC(O)C(F)(F)F)c3=O)C(=O)[C@H]2NC(=O)c2ccc(OC(F)F)cc2)c(F)c1` (some centres unmarked) [Example 475], for which the EC50 was found to be 2 nM on human FPR2 and 20 nM at human FPR1.
As to `COCC(CO)n1nccc(N2C[C@@H](c3c(F)cc(OC)cc3F)[C@H](NC(=O)c3ccc(OC(F)F)cc3)C2=O)c1=O` (some centres unmarked) [Example 476], the EC50 on human FPR2 came to 1.7 nM; on human FPR1, 14 nM.
The corresponding values for `COCC(CO)n1nccc(N2C[C@@H](c3c(F)cc(OC)cc3F)[C@H](NC(=O)c3ccc(Cl)cc3)C2=O)c1=O` (some centres unmarked) [Example 477] are 1 nM and 13 nM.
Take `COc1cc(F)c([C@@H]2CN(c3c(C)ccn(C4CCOCC4)c3=O)C(=O)[C@H]2NC(=O)c2ccc(OC(F)(F)F)cc2)c(F)c1` [Example 478]: the EC50 came out at 5.9 nM at human FPR2 and 1 nM at human FPR1.
In the case of `COc1cc(F)c([C@@H]2CN(c3c(C)ccn(C4CCOC4)c3=O)C(=O)[C@H]2NC(=O)c2ccc(OC(F)F)cc2)c(F)c1` (some centres unmarked) [Example 479], the figures for the EC50 on human FPR2 and at human FPR1 were 9.4 nM and 5 nM, respectively.
The like results for `COc1cc(F)c([C@@H]2CN(c3nccc(N4CCC(C)(O)C4)c3C(F)(F)F)C(=O)[C@H]2NC(=O)c2ccc(Cl)cc2)c(F)c1` (some centres unmarked) [Example 480] were, in that order, 5.7 nM and 300 nM.
For `COc1cc(F)c([C@@H]2CN(c3nccc(N4CCN5CCCC5C4)c3C(F)(F)F)C(=O)[C@H]2NC(=O)c2ccc(Cl)cc2)c(F)c1` (some centres unmarked) [Example 481], the half-maximal effective concentration (EC50) amounted to 1.2 nM on human FPR2 and 2200 nM on human FPR1.
As to `COCC(C(=O)N1CC2(COC2)C1)n1cccc(N2C[C@@H](c3c(F)cc(OC)cc3F)[C@H](NC(=O)c3ccc(OC(F)(F)F)cc3)C2=O)c1=O` (some centres unmarked) [Example 482], the EC50 on human FPR2 amounted to 2.5 nM; at human FPR1, 1 nM.
On to `COc1cc(F)c([C@@H]2CN(c3c(C)ccn(CC(O)C(F)(F)F)c3=O)C(=O)[C@H]2NC(=O)c2ccc(Cl)cc2)c(F)c1` (some centres unmarked) [Example 483], for which the figures for the EC50 at human FPR2 and on human FPR1 were 5.6 nM and 16 nM, respectively.
The like results for `COCCN1CCCC(N2C[C@@H](c3c(F)cc(OC)cc3F)[C@H](NC(=O)c3ccc(OC(F)(F)F)cc3)C2=O)C1=O` (some centres unmarked) [Example 484] were, in that order, 3 nM and 420 nM.
As to `COCC(C(=O)N1CCCC1)n1cccc(N2C[C@@H](c3c(F)cc(OC)cc3F)[C@H](NC(=O)c3ccc(OC(F)F)cc3)C2=O)c1=O` (some centres unmarked) [Example 485], the figures for the 50% effective concentration (EC50) on human FPR2 and at human FPR1 were 1.7 nM and 2 nM, respectively.
As for `COc1cc(F)c([C@@H]2CN(c3cncn(CC(O)C(F)(F)F)c3=O)C(=O)[C@H]2NC(=O)c2ccc(Cl)cc2)c(F)c1` (some centres unmarked) [Example 486], the EC50 turned out to be 4.3 nM at human FPR2 and 36 nM on human FPR1.
The like results for `COc1cc(F)c([C@@H]2CN(c3cncn(CCC(F)(F)F)c3=O)C(=O)[C@H]2NC(=O)c2ccc(OC(F)F)cc2)c(F)c1` [Example 487] were, in that order, 1.9 nM and 720 nM.
With `COc1cc(F)c([C@@H]2CN(c3cncn(CCO)c3=O)C(=O)[C@H]2NC(=O)c2ccc(OC(F)F)cc2)c(F)c1` [Example 488], the 50% effective concentration (EC50) on human FPR2 was determined as 2.6 nM; on human FPR1, 790 nM.
`COc1cc(F)c([C@@H]2CN(c3c(C)ccn(CC(O)C(F)(F)F)c3=O)C(=O)[C@H]2NC(=O)c2ccc(OC(F)F)cc2)c(F)c1` (some centres unmarked) [Example 489]: the EC50 at human FPR2 amounted to 0.7 nM; at human FPR1, 5 nM.
As for `COc1cc(F)c([C@@H]2CN(c3c(C)ccn(C(F)(F)CO)c3=O)C(=O)[C@H]2NC(=O)c2ccc(OC(F)(F)F)cc2)c(F)c1` [Example 490], the EC50 on human FPR2 and at human FPR1 was 1 nM each time.
`COCCN1CCC(c2cc(OC)cc(N3C(=O)[C@@H](NC(=O)c4ccc(OC(F)F)cc4)[C@H](c4c(F)cc(OC)cc4F)[C@@H]3C)n2)CC1` [Example 491]: the half-maximal effective concentration (EC50) was 1.8 nM on human FPR2 and > 5000 nM at human FPR1.
In the case of `COc1cc(C2CCN(CCF)CC2)nc(N2C[C@@H](c3c(F)cc(OC)cc3F)[C@H](NC(=O)c3ccc(OC(F)F)cc3)C2=O)c1` [Example 492], the EC50 on human FPR2 was 8.7 nM; at human FPR1 it was > 5000 nM.
For the compound `COc1cc(F)c([C@@H]2CN(c3cccn4cc(C)nc34)C(=O)[C@H]2NC(=O)c2ccc(Cl)cc2)c(F)c1` [Example 493], the values for the 50% effective concentration (EC50) on human FPR2 and on human FPR1 were 2.2 nM and 270 nM, respectively.
Turning to `COc1cc(F)c([C@@H]2CN(c3cccn4cc(CO)nc34)C(=O)[C@H]2NC(=O)c2ccc(Cl)cc2)c(F)c1` [Example 494], the values for the EC50 on human FPR2 and at human FPR1 were 3.4 nM and 440 nM, respectively.
Consider `COc1cc(F)c([C@@H]2CN(c3cccn4cc(C5CC5)nc34)C(=O)[C@H]2NC(=O)c2ccc(Cl)cc2)c(F)c1` [Example 495], for which the EC50 was found to be 1.6 nM at human FPR2 and 860 nM at human FPR1.
Regarding `COc1cc(F)c([C@@H]2CN(c3cccn4cc(C(C)C)nc34)C(=O)[C@H]2NC(=O)c2ccc(Cl)cc2)c(F)c1` [Example 496], the half-maximal effective concentration (EC50) came out at 3 nM on human FPR2 and 1100 nM at human FPR1.
As for `COc1cc(F)c([C@@H]2CN(c3cccn4cc(C(F)(F)F)nc34)C(=O)[C@H]2NC(=O)c2ccc(Cl)cc2)c(F)c1` [Example 497], the half-maximal effective concentration (EC50) is 1.2 nM at human FPR2 and 720 nM at human FPR1.
On to `COc1cc(C2CCN(C)CC2)nc(N2C[C@@H](c3c(F)cc(OC)cc3F)[C@H](NC(=O)c3ccc(OC(F)F)cc3)C2=O)c1` [Example 498], for which the results for the EC50 on human FPR2 and on human FPR1 were 1.8 nM and > 5000 nM, respectively.
Turning to `COc1cc(F)c([C@@H]2CN(c3cc(OCC4CCCO4)ncn3)C(=O)[C@H]2NC(=O)c2ccc(Cl)cc2)c(F)c1` (some centres unmarked) [Example 499], the EC50 at human FPR2 stood at 29 nM; at human FPR1, 60 nM.
The corresponding values for `COc1cc(F)c([C@@H]2CN(c3cccc(C4=CNCCC4)n3)C(=O)[C@H]2NC(=O)c2ccc(OC(F)F)cc2)c(F)c1` [Example 500] are 2.2 nM and 710 nM.
`COc1cc(F)c([C@@H]2CN(c3cccc(C4CCCN(CCO)C4)n3)C(=O)[C@H]2NC(=O)c2ccc(OC(F)F)cc2)c(F)c1` (some centres unmarked) [Example 501]: the EC50 was 1.6 nM at human FPR2 and 2500 nM on human FPR1.
For the compound `COc1cc(F)c([C@@H]2CN(c3cccc(C4CCCN(CCO)C4)n3)C(=O)[C@H]2NC(=O)c2ccc(OC(F)F)cc2)c(F)c1` (some centres unmarked) [Example 502], the EC50 on human FPR2 stood at 7.7 nM; on human FPR1, 900 nM.
Regarding `COc1cc(F)c([C@H]2[C@H](NC(=O)c3ccc(Cl)cc3)C(=O)N(c3cncn(CC(F)F)c3=O)[C@@H]2C)c(F)c1` [Example 503], the EC50 at human FPR2 was 4.3 nM; at human FPR1 it was 3500 nM.
`COc1cc(C2CCN(CCO)CC2)nc(N2C(=O)[C@@H](NC(=O)c3ccc(OC(F)F)cc3)[C@H](c3c(F)cc(OC)cc3F)[C@@H]2C)c1` [Example 504]: the EC50 at human FPR2 is 2.2 nM; on human FPR1, 3300 nM.
`COc1cc(F)c([C@H]2[C@H](NC(=O)c3ccc(OC(F)F)cc3)C(=O)N(c3cccc(P(C)(C)=O)n3)[C@H]2C)c(F)c1` [Example 505]: the EC50 is 100 nM at human FPR2 and 3400 nM at human FPR1.
With `COc1cc(F)c([C@@H]2CN(c3c(C)ccn(C4CCNCC4)c3=O)C(=O)[C@H]2NC(=O)c2ccc(Cl)cc2)c(F)c1` [Example 506], the EC50 on human FPR2 turned out to be 0.8 nM; at human FPR1, 68 nM.
The corresponding values for `COc1cc(F)c([C@@H]2CN(c3c(C)ccn(C4CCN(C)C4)c3=O)C(=O)[C@H]2NC(=O)c2ccc(OC(F)F)cc2)c(F)c1` (some centres unmarked) [Example 507] are 2.3 nM and 150 nM.
With `COc1cc(F)c([C@@H]2CN(c3c(C)ccn(C4CCN(C)C4)c3=O)C(=O)[C@H]2NC(=O)c2ccc(OC(F)F)cc2)c(F)c1` (some centres unmarked) [Example 508], the concentration giving a half-maximal response (EC50) at human FPR2 worked out at 6.4 nM; on human FPR1, 110 nM.
In the case of `COc1cc(F)c([C@@H]2CN(c3cc(OCC4CCOC4)ncn3)C(=O)[C@H]2NC(=O)c2ccc(Cl)cc2)c(F)c1` (some centres unmarked) [Example 509], the EC50 is 41 nM at human FPR2 and 79 nM at human FPR1.
For the compound `COc1cc(F)c([C@@H]2CN(c3cccc(P(C)(C)=O)n3)C(=O)[C@H]2NC(=O)c2ccc(Cl)cc2)c(F)c1` [Example 511], the concentration for a half-maximal effect (EC50) on human FPR2 stood at 66 nM; at human FPR1, 390 nM.
`COc1cc(F)c([C@H]2[C@H](NC(=O)c3ccc(OC(F)F)cc3)C(=O)N(c3cccc(C4CCCN(C)C4)n3)[C@H]2C)c(F)c1` (some centres unmarked) [Example 512]: the concentration for a half-maximal effect (EC50) at human FPR2 was 3.7 nM; at human FPR1 it was 2100 nM.
Regarding `COc1cc(F)c([C@H]2[C@H](NC(=O)c3ccc(OC(F)F)cc3)C(=O)N(c3cccc(C4CCCN(C)C4)n3)[C@H]2C)c(F)c1` (some centres unmarked) [Example 513], the results for the EC50 on human FPR2 and at human FPR1 were 2.4 nM and 1500 nM, respectively.
`COc1cc(F)c([C@@H]2CN(c3cncn(C4CCN(C)C4)c3=O)C(=O)[C@H]2NC(=O)c2ccc(Cl)cc2)c(F)c1` (some centres unmarked) [Example 514]: the concentration giving a half-maximal response (EC50) at human FPR2 amounted to 2.6 nM; on human FPR1, 270 nM.
With `COc1cc(F)c([C@H]2[C@H](NC(=O)c3ccc(OC(F)F)cc3)C(=O)N(c3cccc(C4CCCN(CCO)C4)n3)[C@H]2C)c(F)c1` (some centres unmarked) [Example 515], the concentration giving a half-maximal response (EC50) on human FPR2 came out at 2.1 nM; on human FPR1, 2200 nM.
With `COc1cc(F)c([C@H]2[C@H](NC(=O)c3ccc(OC(F)F)cc3)C(=O)N(c3cccc(C4CCCN(CCO)C4)n3)[C@H]2C)c(F)c1` (some centres unmarked) [Example 516], the concentration for a half-maximal effect (EC50) came out at 1.3 nM at human FPR2 and 1700 nM at human FPR1.
